Patent EP3042903B1, “Substituted hetero-bicyclic compounds, compositions and medicinal applications thereof” (Impetis Biosciences Ltd., priority 2015, dated 2016)

How the values were obtained:
[1] = target: T1, Recombinant Human Bruton's tyrosine kinase (Btk) (Homo sapiens, UniProt Q06187); assay: Recombinant Human Bruton's tyrosine kinase (Btk) inhibition assay (HTRF KinEASE-TK); assay type: biochemical; details: 20 ng/ml rhBtk, 77 µM ATP (KM), 1 µM TK-Biotin Substrate, 90 minutes; read-out: IC50 (nM) in recombinant hBTK assay
T1 construct: Full length human BTK (hBTK, Genbank#NM_000061.2) was cloned into pFastBac-HTB vector; 6XHis (N); made in house; host or cells: Sf9 cells (Bac-to-Bac baculovirus expression system)
T1 sequence (Q06187 whole entry): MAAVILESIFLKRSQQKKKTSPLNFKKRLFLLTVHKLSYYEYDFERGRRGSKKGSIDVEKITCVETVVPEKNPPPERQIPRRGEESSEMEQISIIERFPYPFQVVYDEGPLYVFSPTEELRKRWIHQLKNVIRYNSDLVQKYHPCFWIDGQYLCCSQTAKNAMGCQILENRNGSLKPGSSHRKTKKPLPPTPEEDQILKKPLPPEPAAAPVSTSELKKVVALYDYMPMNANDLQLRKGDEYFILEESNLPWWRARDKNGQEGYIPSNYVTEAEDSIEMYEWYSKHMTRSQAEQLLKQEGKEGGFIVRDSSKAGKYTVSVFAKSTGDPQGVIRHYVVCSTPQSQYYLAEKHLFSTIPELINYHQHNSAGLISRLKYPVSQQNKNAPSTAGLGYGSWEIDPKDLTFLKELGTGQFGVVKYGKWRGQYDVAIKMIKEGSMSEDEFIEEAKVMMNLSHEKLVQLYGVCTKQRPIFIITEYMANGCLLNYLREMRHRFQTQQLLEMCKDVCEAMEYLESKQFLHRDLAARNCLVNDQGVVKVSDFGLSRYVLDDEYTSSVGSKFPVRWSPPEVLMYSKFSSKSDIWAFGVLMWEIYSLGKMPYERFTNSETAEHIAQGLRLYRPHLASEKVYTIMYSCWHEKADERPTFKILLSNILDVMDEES
Method: Recombinant Human Bruton's tyrosine kinase (Btk) inhibition assay.
Full length human BTK (hBTK, Genbank#NM_000061.2) was cloned into pFastBac-HTB vector (Invitrogen, cat#10359-016). hBTK gene was expressed with N'-terminal 6XHis tag in Sf9 cells using Bac-to-Bac ^(R) Baculovirus expression system (Invitrogen, cat#10359-016) and the recombinant protein was purified by Ni-NTA method. The elution buffer for hBTK consisted of 50 mM Hepes pH 8.0, 300 mM NaCl, 10% glycerol, 1 mM dithiothreitol and 200 mM imidazole.
The inhibition assays were performed using the generic tyrosine kinase assay kit from Cis Bio (HTRF® KinEASE - TK™ # 62TK0PEB). The assay is based on the principle of fluorescence resonance energy transfer (FRET) between the Europium Cryptate labeled anti-phosphotyrosine antibody and streptavidin labeled fluorophore, XL-665. In an uninhibited kinase reaction the biotinylated peptide substrate (Tk-Biotin) gets phosphorylated at an intermediate tyrosine site which is captured by anti-phosphotyrosine antibody which eventually acts as a FRET donor. The streptavidin labeled XL-665 binds strongly to the Tk-Biotin substrate and act as a FRET acceptor. The resultant FRET signal is measured at 665 nm. A ratio of this specific fluorescence (665nm) to the background fluorescence (620nm), conferred by the free antibody, is directly proportional to the kinase activity.
The Btk inhibition assays were performed using 20 ng/ml of rhBtk in a final volume of 10µl reaction buffer containing 77 µM ATP and 1 µM TK-Biotin Substrate in 50 mM HEPES pH 7.0, 5mM MgCl2, 1mM DTT, 0.01% Tween 20 and 50nM SEB®; with a range of concentrations of the inhibitors. The kinase reaction was carried out at the KM of ATP (77 µM) as well as that of Tk-Biotin substrate (1 µM). After 90 minutes, the reaction was stopped by addition of SA-XL665 at a concentration of 62.5 nM in HTRF® detection buffer containing EDTA. Finally 5 µL of TK antibody-cryptate was added to the reaction and the plate was incubated for additional 60 minutes. The fluorescence was read using the FlexStation (Molecular Devices) with excitation at 340 nm and emissions at 620nm (for Cryptate) and 665nm (for FRET). A ratio of the 2 emissions was calculated for each well and expressed as follows: Specific signal = Ratio(Sample)−Ratio(Negative) [formula] Ratio = (665nm/620nm) × 10^4 [formula] Mean Ratio = ∑Ratio/3(triplicates) [formula]
For each data point, % inhibition is calculated based on uninhibited reaction which is considered as 100% activity over no enzyme or substrate controls. Dose response data is then fit using a four parameter logistic equation using GraphPad Prism 5 software to determine inhibition constant 50(IC50).

[2] = test system: B cell activation as measured by CD69 expression in mouse splenocytes; assay: Inhibition of B cell activation as measured by CD69 expression in mouse splenocytes (flow cytometry); assay type: cell-based; details: C57/BL6 splenocytes, 3 µg/mL goat anti-mouse IgM, 18-20 hours, CD69 +ve cells within CD19; read-out: IC50 (nM) in B cell activation assay in Mouse spleenocytes
From the text: Inhibition of B cell activation as measured by CD69 expression in mouse splenocytes:
To test the effect of BTK inhibitors in suppressing B-cell receptor (BCR) mediated activation of B cells, we developed a flow cytometry based assay to analyze CD69 expression in B cell population among total splenocyte from the mouse. C57/BL6 mouse spleens were dissected out and splenocytes were isolated by mincing the tissue with a syringe plunger followed by RBC lysis (0.85% ammonium chloride, (Qualigens,Cat #21405) and several washes in PBS. Finally, cell were cultured in culture medium [RPMI medium (Sigma, Cat R6504) with 10% FBS (Gibco - Cat #10270).
Test compounds were diluted half log starting from 2 mM in 100% DMSO (Sigma, cat#D2650) (200X). 1x10^5 splenocytes were incubated with 1 µL of diluted test compounds in 200 µL culture medium in a U-bottom 96 well plate (Greiner) at 37°C with 5% CO2 for 30 minutes. Control wells received 1 µL of 100% DMSO without any compound. The cells were stimulated with 3 µg/mL goat anti-mouse IgM (Sigma, cat#M8644) and incubated for 18-20 hours. After the stimulation, cells were washed in cold PBS with 1% FBS and stained with 1:100 dilution of anti-CD69-PE (eBioscience, cat#12-0691-83) and anti-CD19-PE.Cy5 (eBioscience, cat#15-0193-83) for 1 hour on ice. Then the cells were washed 3 times with PBS with 1% FBS and analyzed by Guava Easycyte Mini flow cytometer system (Millipore). Flow cytometry data were analyzed using Weasel software (WEHI, Melbourne). B cells were gated using CD19 marker. Expression of CD69 was analyzed as percentage of CD69 +ve cells within CD19. Percent activity for each data point was calculated using following formula: [formula]
(§1) Percentage activity was fit using sigmoid dose response with variable slope logistic equation in GraphPad Prism 5 software to determine IC50.

[3] = test system: B cell activation as measured by CD69 expression in Human whole blood; assay: Inhibition of B cell activation as measured by CD69 expression in Human whole blood (flow cytometry); assay type: cell-based; details: heparinized human whole blood, anti-IgD antibody 30 µg/mL, 4 hours, CD69 positive cells among CD20 B cells
Method: Inhibition of B cell activation as measured by CD69 expression in Human whole blood
To test the effect of BTK inhibitors in suppressing B-cell receptor (BCR) mediated activation of B cells, we developed a flow cytometry based assay to analyze CD69 expression in B cell population in human whole blood. Freshly collected heparinized human whole blood (60 µL/well) was dispensed in 96-well U bottom plate (Greiner), treated with the test compound at a concentrations ranging from 10 µM to 0.3 nM (half log dilutions). 0.5% DMSO (Sigma, cat#D2650) was used as vehicle control. The whole blood was incubated with compounds for 1 hour, followed by stimulation with anti-IgD antibody (Goat Anti-Human IgD Antibody - affinity purified, Bethyl laboratories, cat#A80-106A) at a final concentration of 30 µg/mL at 37°C and 5% CO2 for 4 hours. Subsequently, 45 µL blood was transferred to 1.5 ml microcentrifuge tubes and 1.2 µL of anti-CD20-PE.Cy5 (BD Biosciences, cat#561761)and 1.6 µL of anti-CD69-PE (eBioscience, cat#12-0691-83) antibody were added and mixed properly by gently tapping the tubes. Blood was stained for 20 minutes at room temperature (RT). After antibody incubation, 1 mL pre-warmed 1X Lyse/Fix solution (BD Biosciences, cat#558049) was added and cells were incubated at RT for 10 minutes. Then the tubes were centrifuged at 450xg for 5 minutes at RT and supernatant was removed. Pellet was disrupted by gentle tapping, cells were washed with 1 mL freshly prepared wash buffer and centrifuged at 450xg for 5 minutes at RT. Supernatant was removed completely before resuspending cells in 200 µl of wash buffer and proceeded for acquisition in Guava Easy Cyte Mini instrument. Acquisition was done with following laser settings: FSC Gain: X 16, FSC fine gain 100%, SSC: 893V, GRN: 663V, YLW: 649V, RED: 802V, Threshold Parameters Offset: FSC 0.73 V Threshold 300 units. The cells were diluted in such a way so that cell conc. should not exceed 500 cells/µL and at least 5000 cells were acquired. Viable lymphocytes were gated from the forward and side scatter profile of cells and B cells were sub-gated based on CD20-PE.Cy5 staining. Percent of CD69-PE positive cells were calculated among B lymphocyte sub-gate using Weasel software. Percent activity for each data point was calculated using following formula: [formula]
as §1

| SMILES | IC50 [1] | IC50 [2] | IC50 [3] |
| --- | --- | --- | --- |
| C[C@H]1CN(CC(F)F)CCN1Cc1ccc(-c2cc3c(-c4cc(F)cc(N5CCOc6cc(C7CC7)cc(F)c6C5=O)c4CO)ccnc3[nH]2)nc1 [Example 6, 8-cyclopropyl-4-[3-[2-[5-[[(2S)-4-(2,2-difluoroethyl)-2-methyl-piperazin-1-yl]methyl]-2-pyridyl]-1H-pyrrolo[2,3-b]pyridin-4-yl]-5-fluoro-2-(hydroxymethyl)phenyl]-6-fluoro-2,3-dihydro-1,4-benzoxazepin-5-one] | 2.7 nM | – | – |
| C[C@H]1CN(Cc2ccc(-c3cc4c(-c5cc(F)cc(N6CCOc7cc(C8CC8)cc(F)c7C6=O)c5CO)ccnc4[nH]3)nc2)CCN1CC(F)F [Example 5, 8-cyclopropyl-4-[3-[2-[5-[[(3S)-4-(2,2-difluoroethyl)-3-methyl-piperazin-1-yl]methyl]-2-pyridyl]-1H-pyrrolo[2,3-b]pyridin-4-yl]-5-fluoro-2-(hydroxymethyl)phenyl]-6-fluoro-2,3-dihydro-1,4-benzoxazepin-5-one] | 3 nM | – | – |
| O=C1c2c(F)cc(C3CC3)cc2OCCN1c1cc(F)cc(-c2ccnc3[nH]c(-c4ccc(CN5CCN(CC(F)(F)F)CC5)cn4)cc23)c1CO [Example 2] | 1.9 nM | 2.7 nM | 55.9 nM |
| CC(C)(O)CN1CC=C(c2cc3c(-c4cc(F)cc(N5CCOc6cc(C7CC7)ccc6C5=O)c4CO)ccnc3[nH]2)CC1 [Example 10, 8-cyclopropyl-4-[5-fluoro-2-(hydroxymethyl)-3-[2-[1-(2-hydroxy-2-methyl-propyl)-3,6-dihydro-2H-pyridin-4-yl]-1H-pyrrolo[2,3-b]pyridin-4-yl]phenyl]-2,3-dihydro-1,4-benzoxazepin-5-one] | 4 nM | 27 nM | – |
| O=C1c2c(F)cc(C3CC3)cc2OCCN1c1cc(F)cc(-c2ccnc3[nH]c(-c4ccc(CN5CCOCC5)cn4)cc23)c1CO [Example 4, 8-cyclopropyl-6-fluoro-4-[5-fluoro-2-(hydroxymethyl)-3-[2-[5-(morpholinomethyl)-2-pyridyl]-1H-pyrrolo[2,3-b]pyridin-4-yl]phenyl]-2,3-dihydro-1,4-benzoxazepin-5-one] | 0.55 nM | – | – |
| O=C1c2c(F)cc(C3CC3)cc2OCCN1c1cc(F)cc(-c2ccnc3[nH]c(-c4ccc(CN5CCN(C6COC6)CC5)cn4)cc23)c1CO [Example 1, 8-cyclopropyl-6-fluoro-4-[5-fluoro-2-(hydroxymethyl)-3-[2-[5-[[4-(oxetan-3-yl)piperazin-1-yl]methyl]-2-pyridyl]-1H-pyrrolo[2,3-b]pyridin-4-yl]phenyl]-2,3-dihydro-1,4-benzoxazepin-5-one] | – | 2.7 nM | 16.5 nM |
| O=C1c2ccc(C3CC3)cc2OCCN1c1cc(F)cc(-c2ccnc3[nH]c(C4=CCN(C5COC5)CC4)cc23)c1CO [Example 9, 8-cyclopropyl-4-[5-fluoro-2-(hydroxymethyl)-3-[2-[1-(oxetan-3-yl)-3,6-dihydro-2H-pyridin-4-yl]-1H-pyrrolo[2,3-b]pyridin-4-yl]phenyl]-2,3-dihydro-1,4-benzoxazepin-5-one] | 2.5 nM | 47 nM | – |
| C[C@@H]1CN(Cc2ccc(-c3cc4c(-c5cc(F)cc(N6CCOc7cc(C8CC8)cc(F)c7C6=O)c5CO)ccnc4[nH]3)nc2)CCN1CC(F)F [Example 7, 8-cyclopropyl-4-[3-[2-[5-[[(3R)-4-(2,2-difluoroethyl)-3-methyl-piperazin-1-yl]methyl]-2-pyridyl]-1H-pyrrolo[2,3-b]pyridin-4-yl]-5-fluoro-2-(hydroxymethyl)phenyl]-6-fluoro-2,3-dihydro-1,4-benzoxazepin-5-one] | 1.8 nM | – | – |
| O=C1c2c(F)cc(C3CC3)cc2OCCN1c1cc(F)cc(-c2ccnc3[nH]c(C4=CCN(C5COC5)CC4)cc23)c1CO [Example 8, 8-cyclopropyl-6-fluoro-4-[5-fluoro-2-(hydroxymethyl)-3-[2-[1-(oxetan-3-yl)-3,6-dihydro-2H-pyridin-4-yl]-1H-pyrrolo[2,3-b]pyridin-4-yl]phenyl]-2,3-dihydro-1,4-benzoxazepin-5-one] | 1.3 nM | 9 nM | 124 nM |
| O=C1c2c(F)cc(C3CC3)cc2OCCN1c1cc(F)cc(-c2ccnc3[nH]c(-c4ccc(OC5CCN(C6COC6)CC5)cn4)cc23)c1CO [Example 11, 8-cyclopropyl-6-fluoro-4-[5-fluoro-2-(hydroxymethyl)-3-[2-[5-[[1-(oxetan-3-yl)-4-piperidyl]oxy]-2-pyridyl]-1H-pyrrolo[2,3-b]pyridin-4-yl]phenyl]-2,3-dihydro-1,4-benzoxazepin-5-one] | 1.15 nM | – | – |
